According to PubChem BioAssay AID248 (DTP/NCI, 2004):
Values joined by “and” are separate entries in the source; they are usually repeats but may differ in a detail not shown here. Equal values may be shown once. Toxic doses and inconclusive results are not listed. Rule as the data show it: active = T/C of 150% or more; inactive = T/C below 125%.

System: L1210 leukemia ip in BDF1 mice, survival T/C
Experiment: NCI In Vivo Anticancer Drug Screen. Data for tumor model L1210 Leukemia (intraperitoneal) in B6D2F1 (BDF1) mice
Settings: endpoint: mean survival time, higher = longer survival
How it was run: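 Transplanted-tumor mice were given test agent; controls received vehicle only. Survival readings from the two groups were divided (treated over control).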

[1] = dose: 50.0 mg/kg/injection, schedule: Q01DX001 (ip), vehicle: saline
[2] = dose: 100.0 mg/kg/injection, schedule: Q01DX001 (ip), vehicle: saline
[3] = dose: 200.0 mg/kg/injection, schedule: Q01DX001 (ip), vehicle: saline
[4] = dose: 400.0 mg/kg/injection, schedule: Q01DX001 (ip), vehicle: saline
[5] = dose: 100.0 mg/kg/injection, schedule: Q04DX003 (ip), vehicle: saline with Tween-80
[6] = dose: 200.0 mg/kg/injection, schedule: Q04DX003 (ip), vehicle: saline with Tween-80
[7] = dose: 400.0 mg/kg/injection, schedule: Q04DX003 (ip), vehicle: saline with Tween-80
[8] = dose: 100.0 mg/kg/injection, schedule: Q01DX009 (ip), vehicle: saline with Tween-80
[9] = dose: 200.0 mg/kg/injection, schedule: Q01DX009 (ip), vehicle: saline with Tween-80
[10] = dose: 400.0 mg/kg/injection, schedule: Q01DX009 (ip), vehicle: saline with Tween-80

Measured: T/C

CNC(=S)N/N=C/C(C)=N/NC(=S)NC
inactive: dose: 4.0 mg/kg/injection, schedule: Q01DX Z (ip), vehicle: carboxymethylcellulose (CMC) 102 % of control | dose: 8.0 mg/kg/injection, schedule: Q01DX Z (ip), vehicle: carboxymethylcellulose (CMC) 97 % of control | dose: 10.0 mg/kg/injection, schedule: Q04DX003 (ip), vehicle: saline 98 % of control | dose: 16.0 mg/kg/injection, schedule: Q01DX Z (ip), vehicle: carboxymethylcellulose (CMC) 95 % of control and 103 % of control | dose: 20.0 mg/kg/injection, schedule: Q04DX003 (ip), vehicle: saline 100 % of control | dose: 31.0 mg/kg/injection, schedule: Q01DX Z (ip), vehicle: carboxymethylcellulose (CMC) 95 % of control | dose: 40.0 mg/kg/injection, schedule: Q04DX003 (ip), vehicle: saline 96 % of control | [1] 86 % of control | dose: 62.0 mg/kg/injection, schedule: Q01DX Z (ip), vehicle: carboxymethylcellulose (CMC) 93 % of control and 100 % of control | dose: 80.0 mg/kg/injection, schedule: Q04DX003 (ip), vehicle: saline 93 % of control | [2] 95 % of control | dose: 125.0 mg/kg/injection, schedule: Q01DX Z (ip), vehicle: carboxymethylcellulose (CMC) 90 % of control and 91 % of control | [3] 89 % of control | dose: 250.0 mg/kg/injection, schedule: Q01DX Z (ip), vehicle: carboxymethylcellulose (CMC) 93 % of control | [4] 95 % of control | dose: 500.0 mg/kg/injection, schedule: Q01DX Z (ip), vehicle: carboxymethylcellulose (CMC) 90 % of control | dose: 1000.0 mg/kg/injection, schedule: Q01DX Z (ip), vehicle: carboxymethylcellulose (CMC) 90 % of control | dose: 125.0 micrograms/kg/injection, schedule: Q01DX009 (ip), vehicle: saline 101 % of control | dose: 250.0 micrograms/kg/injection, schedule: Q01DX009 (ip), vehicle: saline 98 % of control | dose: 500.0 micrograms/kg/injection, schedule: Q01DX009 (ip), vehicle: saline 98 % of control | dose: 1000.0 micrograms/kg/injection, schedule: Q01DX009 (ip), vehicle: saline 107 % of control

CC1=CC(=N\S(=O)(=O)c2ccccc2)/C(=N/S(=O)(=O)c2ccccc2)C=C1
inactive: [5] 94 % of control | [6] 94 % of control | [7] 92 % of control

CCOC(=O)c1cc(=O)ss1
inactive: dose: 50.0 mg/kg/injection, schedule: Q01DX009 (ip), vehicle: saline with Tween-80 100 % of control | [8] 101 % of control | [5] 96 % of control | [9] 92 % of control | [6] 97 % of control | [10] 94 % of control | [7] 106 % of control

O=C1CCCC(=O)NNC(=O)NCCCCCCNC(=O)NN1
inactive: [1] 102 % of control | [2] 87 % of control | [3] 87 % of control | [4] 96 % of control

COc1cc([C@@H]2c3cc4c(cc3[C@H](SC(=N)N)[C@H]3COC(=O)[C@H]23)OCO4)cc(OC)c1OC
inactive: dose: 5.0 mg/kg/injection, schedule: Q01DX Z (ip), vehicle: carboxymethylcellulose (CMC) 98 % of control | dose: 6.0 mg/kg/injection, schedule: Q01DX Z (ip), vehicle: carboxymethylcellulose (CMC) 109 % of control | dose: 10.0 mg/kg/injection, schedule: Q01DX Z (ip), vehicle: carboxymethylcellulose (CMC) 103 % of control | dose: 12.0 mg/kg/injection, schedule: Q01DX Z (ip), vehicle: carboxymethylcellulose (CMC) 112 % of control | dose: 18.0 mg/kg/injection, schedule: Q01DX Z (ip), vehicle: carboxymethylcellulose (CMC) 108 % of control | dose: 18.0 mg/kg/injection, schedule: Q01DX Z (ip), vehicle: methylcellulose (MC) 103 % of control | dose: 24.0 mg/kg/injection, schedule: Q01DX Z (ip), vehicle: carboxymethylcellulose (CMC) 112 % of control | dose: 25.0 mg/kg/injection, schedule: Q01DX009 (ip), vehicle: saline 118 % of control | dose: 27.0 mg/kg/injection, schedule: Q01DX Z (ip), vehicle: carboxymethylcellulose (CMC) 100 % of control | dose: 37.5 mg/kg/injection, schedule: Q04DX003 (ip), vehicle: saline 104 % of control | dose: 48.0 mg/kg/injection, schedule: Q01DX Z (ip), vehicle: carboxymethylcellulose (CMC) 109 % of control | dose: 50.0 mg/kg/injection, schedule: Q01DX009 (ip), vehicle: saline 88 % of control | dose: 60.0 mg/kg/injection, schedule: Q01DX Z (ip), vehicle: methylcellulose (MC) 109 % of control | dose: 75.0 mg/kg/injection, schedule: Q04DX003 (ip), vehicle: saline 105 % of control | dose: 150.0 mg/kg/injection, schedule: Q04DX003 (ip), vehicle: saline 89 % of control

C=NN=C(N)N
inactive: dose: 0.38 mg/kg/injection, schedule: Q01DX Z (ip), vehicle: saline 100 % of control | dose: 0.75 mg/kg/injection, schedule: Q01DX Z (ip), vehicle: saline 92 % of control | dose: 3.0 mg/kg/injection, schedule: Q01DX Z (ip), vehicle: saline 87 % of control | dose: 6.0 mg/kg/injection, schedule: Q01DX Z (ip), vehicle: saline 106 % of control | dose: 12.0 mg/kg/injection, schedule: Q01DX Z (ip), vehicle: saline 102 % of control | dose: 15.0 mg/kg/injection, schedule: Q01DX Z (ip), vehicle: saline 100 % of control | dose: 15.0 mg/kg/injection, schedule: Q01DX Z (oral), vehicle: saline 86 % of control | dose: 30.0 mg/kg/injection, schedule: Q01DX Z (ip), vehicle: saline 105 % of control | dose: 30.0 mg/kg/injection, schedule: Q01DX Z (oral), vehicle: saline 92 % of control

CCOc1ccc(CCOC(C)=O)cc1
inactive: dose: 100.0 mg/kg/injection, schedule: Q04DX002 (ip), vehicle: Klucel (hydroxypropylcellulose) (HPC) 97 % of control | dose: 200.0 mg/kg/injection, schedule: Q04DX002 (ip), vehicle: Klucel (hydroxypropylcellulose) (HPC) 101 % of control | dose: 400.0 mg/kg/injection, schedule: Q04DX002 (ip), vehicle: Klucel (hydroxypropylcellulose) (HPC) 101 % of control

c1ccc2cc3sccc3cc2c1
inactive: dose: 100.0 mg/kg/injection, schedule: Q01DX009 (ip), vehicle: Klucel (hydroxypropylcellulose) (HPC) 96 % of control | dose: 200.0 mg/kg/injection, schedule: Q01DX009 (ip), vehicle: Klucel (hydroxypropylcellulose) (HPC) 95 % of control | dose: 400.0 mg/kg/injection, schedule: Q01DX009 (ip), vehicle: Klucel (hydroxypropylcellulose) (HPC) 93 % of control

CC(OC(=O)c1ccc([N+](=O)[O-])cc1)C(C)OC(=O)c1ccc([N+](=O)[O-])cc1 (centres undefined)
inactive: dose: 100.0 mg/kg/injection, schedule: Q01DX001 (ip), vehicle: Klucel (hydroxypropylcellulose) (HPC) 92 % of control | dose: 200.0 mg/kg/injection, schedule: Q01DX001 (ip), vehicle: Klucel (hydroxypropylcellulose) (HPC) 97 % of control | dose: 400.0 mg/kg/injection, schedule: Q01DX001 (ip), vehicle: Klucel (hydroxypropylcellulose) (HPC) 97 % of control

Nc1ncnc2cc(O)[nH]c12
inactive: dose: 50.0 mg/kg/injection, schedule: Q01DX001 (ip), vehicle: carboxymethylcellulose (CMC) 107 % of control | dose: 100.0 mg/kg/injection, schedule: Q01DX001 (ip), vehicle: carboxymethylcellulose (CMC) 104 % of control

Nc1ncnc(Nc2ccccc2[N+](=O)[O-])c1[N+](=O)[O-]
inactive: dose: 12.5 mg/kg/injection, schedule: Q01DX001 (ip), vehicle: Klucel (hydroxypropylcellulose) (HPC) 97 % of control | dose: 25.0 mg/kg/injection, schedule: Q01DX001 (ip), vehicle: Klucel (hydroxypropylcellulose) (HPC) 87 % of control | dose: 50.0 mg/kg/injection, schedule: Q01DX001 (ip), vehicle: Klucel (hydroxypropylcellulose) (HPC) 87 % of control

CCN(CC)CCCC(C)NC/C=C/CNC(C)CCCN(CC)CC (centres undefined)
inactive: dose: 0.78 mg/kg/injection, schedule: Q01DX009 (ip), vehicle: water 104 % of control | dose: 6.25 mg/kg/injection, schedule: Q04DX003 (ip), vehicle: water 105 % of control | dose: 12.5 mg/kg/injection, schedule: Q04DX003 (ip), vehicle: water 92 % of control | dose: 25.0 mg/kg/injection, schedule: Q01DX009 (ip), vehicle: water 104 % of control | dose: 25.0 mg/kg/injection, schedule: Q04DX003 (ip), vehicle: water 103 % of control

Cc1cncc(CC(O)(C(F)(F)F)C(F)(F)F)n1
inactive: [2] 102 % of control | [8] 97 % of control | [3] 96 % of control | [9] 103 % of control | [4] 104 % of control | [10] 101 % of control
